For one test, the target named is T1, KRAS G12C (Homo sapiens, UniProt P01116, G12C).
T1 construct: purchased Reactionbiology
Briefly: KRAS G12C NEA-HTRF experiment (SOS1-catalyzed displacement of GDP by GTP). The class given is biochemical. The source says:
Raw materials and instruments: KRAS G12C (his-tag) purchased from Reactionbiology; batch number 3496; SOS1 purchased from Reactionbiology; batch number: 3501; GTP purchased from Sigma; article number: G8877; batch number: SLBV1450; Tris-HC1 purchased from Sigma; EDTA purchased from absin; article number: abs42017668; batch number: JE20; NaCl purchased from Sigma; article number: 55886; batch number: SLBW4193; MgCl2 purchased from Shyuanye; article number: R21455; batch number: L07S9G69806; HEPES purchased from Life Technologies; article number: 15630-080; batch number: 2037042; DTT purchased from Thermo Fisher; article number: R0862; batch number: 00608918; Triton X-100 purchased from Sigma; article number: T8787-100 ML; batch number: SLBW7103; DY647-labeled GDP purchased from Jena Bioscience; article number: NU-840-647P1; batch number: BM019-045; Anti-6H1S-Tb purchased from Cisbio; article number: 61H12TLA; batch number: 13A; Bradford Assay Kit purchased from Thermo Fisher; article number: 23246; batch number: UG287474; white opaque 96-well plate purchased from Cisbio; article number: 66PL96025; batch number: N°06; NAP-5 column purchased from GE Healthcare; article number: 17085301; batch number: 16995164; mircoplate reader purchased from PerkinElmer; model: Envision MLD2105-0020; equipment number 1050369. The effect of compounds on SOS1-catalyzed displacement of GDP by GTP on KRAS protein was examined using a homogeneous time-resolved fluorescence (HTRF) method. 30 μM 6×his-tagged KRAS G12C recombinant protein was incubated with 80 μM fluorescent dye DY647-labeled GDP in labeling buffer (1 mM DTT, 7.5 mM EDTA, 25 mM Tris-HCl, 45 mM NaCl) at 20° C. in the dark for 2 hours, purified using NAP-5 column, and then protein quantification was performed with Bradford Assay Kit after purification to determine the concentration of KRAS […] 3.16-fold gradient concentration stock solution of 1000× compound was prepared with DMSO, and diluted 250-fold to 4× compound stock solution with reaction buffer (40 mM HEPES, 10 mM MgCl2, 1 mM DTT, 0.002% Triton X-100). KRAS G12C-GDP/Tb working solution (40 nM KRAS […] Tb) and SOS1/GTP working solution (0.2 μM SOS1, 200 μM GTP) were prepared using the reaction buffer. A white opaque 96-well plate was taken, and 5 μL of 4× compound stock solution and 10 μL of KRAS G12C-GDP/Tb working solution were added to each well. 5 μL of reaction buffer instead of 4x compound stock solution was used in the control well. After incubation in the dark for 15 minutes at 20° C., 5μL of SOS1/GTP working solution was added thereto, and the fluorescence value (excitation wavelength: 320 nm, emission wavelength: 615 nm and 665 nm) was read after incubating at 20° C. in the dark for 2 hours. Another T0 group was set up with 10 μL reaction buffer+10 μL KRAS G12C-GDP/Tb working solution, and the fluorescence value was read directly by the microplate reader. The fluorescence signal ratio RLU=(665 nm signal/615 nm signal)×10^4; and the compound inhibition rate IR (%)=(RLUcompound-RLUcontrol)/(RLUT0-RLUcontrol)×100% were calculated. The IC50 value was calculated by fitting the gradient dilution concentration of compound and the corresponding inhibition rate with the four-parameter method. The NEA activity of the compounds prepared in the above embodiments of the present disclosure was 0.0001 μM to 1 μM; the inhibitory activity of some compounds on KRAS G12C mutant MIA PaCa-2 cells was 0.001 μM to 0.5 μM or 0.001 μM to 0.1 μM.
In general terms: Time-resolved FRET reads energy transfer from a long-lived donor to a nearby acceptor.

Test [1] relates to KRAS G12C mutant NCI-H358 cells. Briefly: Cell proliferation inhibition experiment, 3D spheroid, CellTiter-Glo, NCI-H358. The settings on record: NCI-H358 (KRAS G12C mutant) 3D spheroid, 5 days with compound, CellTiter-Glo, read-out: H358 IC50. The format is cell-based, human. The procedure, abridged: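 NCI-H358 (800 cells/well, RPMI-1640) and A549 (400 cells/well, F-12K) grown overnight as 3D spheroids in 2% FBS medium, then exposed 5 days to 3.16-fold compound dilutions at 0.1% DMSO. Viability measured by CellTiter-Glo luminescence; inhibition relative to DMSO and medium blank, IC50 from four-parameter fit.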
(Cellular ATP, detected with luciferase, serves as a proxy for viable cell number.)

In test [2] the test system is KRAS G12C mutant MIA PaCa-2 cells. In words: Cell proliferation inhibition experiment, 3D spheroid, CellTiter-Glo, MIA PaCa-2. The format is cell-based, human. The settings on record: Homo sapiens, MIA PaCa-2, 120 h, 3D cell model in 384-well spheroid plate, 5 days, CellTiter-Glo; read-out: MIA-PaCa2 IC50. The procedure, abridged: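 200 MIA PaCa-2 cells/well grown overnight as 3D spheroids, then exposed to 3.16-fold compound dilutions (0.1% DMSO final) for 5 days. Viability read by CellTiter-Glo luminescence; inhibition calculated against DMSO and medium-only controls, and IC50 fitted by four-parameter model.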

Like-named read-outs stand apart in the source and are kept apart here. Some results are limits rather than exact numbers.

For orientation: IC50 means the concentration at which inhibition is half-maximal.

T1 sequence (P01116 1-188 isoform P01116-2 G12C): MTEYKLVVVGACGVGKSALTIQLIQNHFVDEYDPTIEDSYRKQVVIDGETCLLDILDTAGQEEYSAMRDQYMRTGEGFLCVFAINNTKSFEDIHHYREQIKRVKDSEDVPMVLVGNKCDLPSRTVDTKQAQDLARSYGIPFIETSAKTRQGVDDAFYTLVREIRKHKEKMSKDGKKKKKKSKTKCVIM

For `C=CC(=O)N1CCN2C(=O)c3c(N4Cc5nncn5CC4C)nc(-c4c(O)cccc4F)c(Cl)c3OC[C@H]2C1` (stereo partly drawn) [Z277-1, (6aR)-8-acryloyl-4-chloro-3-(2-fluoro-6-hydroxyphenyl)-1-(6-methyl-5,6-dihydro-[1,2,4]triazolo [4,3-a]pyrazin-7(8H)-yl)-6,6a,7,8,9,10-hexahydro-12H-pyrazino[2,1-c]pyrido[3,4-f][1,4]oxazepin-12-one], the IC50 on KRAS G12C amounted to 33 nM.
`C=CC(=O)N1CCN2C(=O)c3c(N4CCN(C)[C@H](C)[C@@H]4C)nc(-c4ccccc4F)c(Cl)c3OC[C@H]2C1` (single isomer, unassigned) [Z465-2] returned an IC50 at KRAS G12C above 10000 nM.
As for `C=CC(=O)N1CCN2C(=O)c3c(N4CCC[C@@]4(C)C(=O)NC)nc(-c4c(F)cccc4OC)c(Cl)c3OC[C@H]2C1` (single isomer, unassigned) [Z466-2], the figures for the IC50 (on KRAS G12C; in test [1]) were 383 nM and 38 nM, respectively.
For `C=CC(=O)N1CCN2C(=O)c3c(N4CC(N5CC(OC)C5)CC4(C)C)nc(-c4ccccc4F)c(Cl)c3OC[C@H]2C1` (single isomer, unassigned) [Z479-2], the IC50 at KRAS G12C was found to be 431 nM; in test [1] (Homo sapiens, NCI-H358, 120 h), 74.9 nM.
For `C=CC(=O)N1CCN2C(=O)c3c(N4C[C@@H](N(C)CCOC)CC4(C)C)nc(-c4ccccc4F)c(Cl)c3OC[C@H]2C1` (single isomer, unassigned) [Z406-2], the IC50 came out at 175 nM at KRAS G12C and 21 nM in test [1] (Homo sapiens, NCI-H358, 120 h).
`C=CC(=O)N1CCN2C(=O)c3c(N4CC(N5CC(F)C5)CC4(C)C)nc(-c4ccccc4F)c(Cl)c3OC[C@H]2C1` (single isomer, unassigned) [Z480-2]: the IC50 on KRAS G12C came to 321 nM; in test [1] (Homo sapiens, NCI-H358, 120 h), 155 nM.
As to `C=CC(=O)N1CCN2C(=O)c3c(N4C[C@H](N5CCN(C)CC5)CC4(C)C)nc(-c4ccccc4F)c(F)c3OC[C@H]2C1` (single isomer, unassigned) [Z474-2], the concentration for half-maximal inhibition (IC50) at KRAS G12C came out at 593 nM; in test [1] (Homo sapiens, NCI-H358, 120 h), 63.3 nM.
As for `C=CC(=O)N1CCN2C(=O)c3c(N4CCN(C)[C@H](C)[C@@H]4C)nc(-c4c(O)cccc4F)c(Cl)c3OC[C@H]2C1` (relative stereo) [Z465, (6aR)-8-acryloyl-4-chloro-3-(2-fluoro-6-hydroxyphenyl)-1-(cis-2,3,4-trimethylpiperazin-1-yl)-12-oxo-6,6a,7,8,9,10-hexahydro-12H-pyrazino[2,1-c]pyrido[3,4-f][1,4]oxazepin-12-one], the IC50 on KRAS G12C was 275 nM; in test [1], 38 nM.
As for `C=CC(=O)N1CCN2C(=O)c3c(N4C[C@H](C(=O)O)CC4(C)C)nc(-c4c(O)cccc4F)c(Cl)c3OC[C@H]2C1` (single isomer, unassigned) [Z458-2], the concentration for half-maximal inhibition (IC50) at KRAS G12C was 252 nM; in test [2], above 1000 nM.
As for `C=CC(=O)N1CCN2C(=O)c3c(N4CCC[C@@]4(C)C(=O)NC)nc(-c4c(F)cccc4OC)c(Cl)c3OC[C@H]2C1` (single isomer, unassigned) [Z466-1], the IC50 on KRAS G12C came to 764 nM; in test [1] (Homo sapiens, NCI-H358, 120 h) it was 49 nM.
On KRAS G12C, `C=CC(=O)N1CCN2C(=O)c3c(N4CC5CCC(=O)N5C[C@@H]4C)nc(-c4c(O)cccc4F)c(Cl)c3OC[C@H]2C1` (stereo partly drawn) [Z330-1, (6aR)-8-acryloyl-4-chloro-3-(2-fluoro-6-hydroxyphenyl)-1-((3S)-3-methyl-6-oxohexahydropyrrolo[1,2-c]pyrazin-2 (1H)-yl)-6,6a,7,8,9,10-hexahydro-12H-pyrazino[2,1-c]pyrido[3,4-f][1,4]oxazepin-12-one] returned an IC50 of 226 nM.
With `C=CC(=O)N1CCN2Cc3c(C(=O)N(C)C(C)C)nc(-c4ccccc4F)c(Cl)c3OC[C@H]2C1` [Z656, (R)-8-acryloyl-4-chloro-3-(2-fluorophenyl)-N-isopropyl-N-methyl-6a,7,8,9,10,12-hexahydro-6H-pyrazino[2,1-c]pyrido[3,4-f][1,4]oxazepine-1-carboxamide], the half-inhibitory concentration (IC50) on KRAS G12C is above 10000 nM.
For the compound `C=CC(=O)N1CCN2C(=O)c3c(N4C[C@H](O)CC4(C)C)nc(-c4c(F)ccc(F)c4O)c(F)c3OC[C@H]2C1` (single isomer, unassigned) [Z449-2], the concentration for half-maximal inhibition (IC50) on KRAS G12C turned out to be 389 nM.
As for `C=CC(=O)N1CCN2C(=O)c3c(N4CCN(CCOC)C(C)(C)C4)nc(-c4ccccc4F)c(Cl)c3OCC2C1` (stereo not drawn) [Z478, 8-acryloyl-4-chloro-3-(2-fluorophenyl)-1-(4-(2-methoxyethyl)-3,3-dimethylpiperazin-1-yl)-6,6a,7,8,9,10-hexahydro-12H-pyrazino[2,1-c]pyrido[3,4-f][1,4]oxazepin-12-one], the IC50 turned out to be 423 nM on KRAS G12C and 29.6 nM in test [1] (Homo sapiens, NCI-H358, 120 h).
With `C=CC(=O)N1CCN2C(=O)c3c(N4C[C@@H](C)O[C@H](C)C4)nc(-c4c(O)cccc4F)c(Cl)c3OC[C@H]2C1` [Z248-2, (6aR)-8-acryloyl-4-chloro-1-((2R,6R)-2,6-dimethylmorpholino)-3-(2-fluoro-6-hydroxyphenyl)-6,6a,7,8,9,10-hexahydro-12H-pyrazino[2,1-c]pyrido[3,4-f][1,4]oxazepin-12-one], the IC50 at KRAS G12C came to 169 nM; in test [1] (Homo sapiens, NCI-H358, 120 h), 16 nM.
For `C=CC(=O)N1CCN2C(=O)c3c(N4C[C@@H](O)[C@@H]4C)nc(-c4c(O)cccc4F)c(Cl)c3OC[C@H]2C1` (single isomer, unassigned) [Z102-1], in that order: 194 nM and 51.3 nM.

These data come from patent publication US20230203060A1 (GENFLEET THERAPEUTICS (SHANGHAI) INC., priority 2020, published 2023).
